Data: US20020137929A1, “1 - (3-heterocyclylphenyl) isothiourea, -isourea, -guanidine and -amidine herbicidal agents” (Intellectual Property Department, BASF Aktiengesellschaft, priority 1998, published 2002)

Columns and labels:
AMBEL (Ragweed, Common) [1] = assay: Preemergence herbicidal evaluation; assay type: in vivo, Ambrosia artemisifolia; settings: rated 4-5 weeks after treatment
Outline: (§1)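 Greenhouse preemergence test: seed-soil mix sown on ~1 inch soil; aqueous acetone spray at equivalent of ~0.0156–0.500 kg/ha; greenhouse-held and watered; scored 0–9 visually at 4–5 weeks.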

CYPSE (Flatsedge) [2] = assay: Postemergence weed control under flooded paddy conditions; assay type: in vivo, Cyperus serotinus; settings: postemergence weeds
From the text: Results of herbicide evaluation are expressed on a rating scale (0-9). The scale is based upon a visual observation of plant stand, vigor, malformation, size, chlorosis and overall plant appearance as compared with a control.
Plastic containers containing weeds which are 3 to 5 cm tall and rice seedlings at the 1.5 to 2.5 leaf stage are flooded with water. The water is maintained at 1.5 to 3 cm above the soil surface for the duration of the experiment. Test compounds are applied as aqueous/ acetone mixtures 50/50 v/v directly into the flood water to provide the equivalent of about 0.0313 to 0.500 kg/ha of active ingredient. The treated containers are placed on greenhouse benches and cared for in accordance with conventional greenhouse procedures. Three to four weeks after treatment, the test is terminated and each container is examined and herbicidal effect rated according to the rating system provided in Example 37. The compounds evaluated are reported by compound number given in Example 37.

ECHCG (Barnyardgrass) = assay: Postemergence herbicidal evaluation; assay type: in vivo, Echinochloa crus-galli
Outline: (§2)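 Scores (0–9) reflect plant stand, vigor, malformation, size, chlorosis and general appearance relative to control, read 4 to 5 weeks after treatment and averaged where tests were repeated. Application: about 0.0156–0.500 kg/ha sprayed at 40 psi onto two-week seedlings.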

CYPSE (Flatsedge) [3] = assay: Preemergence weed control under flooded paddy conditions; assay type: in vivo, Cyperus serotinus; settings: rated 3-4 weeks after treatment
Outline: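 Greenhouse paddy assay. Acetone/water (50/50 v/v) solutions dosed into flood water, equivalent to about 0.0313 to 0.500 kg/ha active ingredient, over seeds planted 0.5 cm deep in silt loam. Score: 0-9 visual, based on stand, vigor, malformation, size and chlorosis, 3 to 4 weeks after treatment.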

CASOB (Sicklepod) = assay: Preemergence herbicidal evaluation; assay type: in vivo, Cassia obtusifolia; settings: rated 4-5 weeks after treatment
Outline: as §1

ORYSAT (Rice, Tebonnet) = assay: Postemergence herbicidal evaluation; assay type: in vivo, Oryza sativa, (L.) Tebonnet
Outline: as §2

[4] = tested on: GLXMAW (Soybean, Williams); assay: Postemergence herbicidal evaluation; assay type: in vivo, Glycine max, (L.) Merr. cv Williams
Outline: as §2

[5] = tested on: CHEAL (Lambsquarters, Common); assay: Postemergence herbicidal evaluation; assay type: in vivo, Chenopodium album
Outline: as §2

GALAP (Galium) = assay: Preemergence herbicidal evaluation; assay type: in vivo, Galium aparine; settings: rated 4-5 weeks after treatment
Outline: as §1

AMBEL (Ragweed, Common) [6] = assay: Postemergence herbicidal evaluation; assay type: in vivo, Ambrosia artemisifolia
Outline: as §2

CYPIR (Rice Flatsedge) = assay: Postemergence weed control under flooded paddy conditions; assay type: in vivo, Cyperus iria; settings: postemergence weeds
Outline: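 Containers holding 3–5 cm weeds and rice at 1.5–2.5 leaves are flooded to 1.5–3 cm above soil. Compound in 50/50 v/v aqueous/acetone is then added directly to the water, about 0.0313–0.500 kg/ha. Plants are kept in the greenhouse and rated 0–9 visually at 3–4 weeks.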

ZEAMX (Corn, Field) = assay: Postemergence herbicidal evaluation; assay type: in vivo, Zea mays
Outline: as §2

ABUTH (Velvetleaf) = assay: Postemergence herbicidal evaluation; assay type: in vivo, Abutilon theophrasti
Outline: as §2

[7] = tested on: CHEAL (Lambsquarters, Common); assay: Preemergence herbicidal evaluation; assay type: in vivo, Chenopodium album; settings: rated 4-5 weeks after treatment
Outline: as §1

[8] = Rate 0.0625 kg/ha, rated 3 to 4 weeks after treatment
[9] = rate 0.1250 kg/ha, 3-4 weeks after treatment
[10] = rate 0.2500 kg/ha, 3-4 weeks after treatment

`C#CCOC(=O)CC1SC(=Nc2cc(-n3c(=O)cc(C(F)(F)F)n(C)c3=O)c(F)cc2Cl)N(CC(=O)OCC)C1=O` (centres unmarked) [Compound 59, 2-{{2-Chloro-5-[3,6-dihydro-3-methyl-2,6-dioxo-4-(trifluoromethyl)-1(2H)-pyrimidinyl]-4-fluorophenyl}imino}-4-oxo-3,5-thiazolidinediacetic acid, 3-ethyl (2-propynyl) ester] was tested, and the “Preemergence herbicidal rating AMBEL” value (AMBEL (Ragweed, Common) [1]; rate 0.0156 kg/ha) was 2.0, the “Preemergence herbicidal rating AMBEL” value (AMBEL (Ragweed, Common) [1]; rate 0.0313 kg/ha) was 3.5 and the “Preemergence herbicidal rating AMBEL” value (AMBEL (Ragweed, Common) [1]; rate 0.0625 kg/ha) was 6.5. For the same molecule, the “Preemergence herbicidal rating AMBEL” value (AMBEL (Ragweed, Common) [1]; rate 0.1250 kg/ha) was 9.0, the “Preemergence herbicidal rating AMBEL” value (AMBEL (Ragweed, Common) [1]; rate 0.2500 kg/ha) was 9.0 and the “Preemergence herbicidal rating AMBEL” value (AMBEL (Ragweed, Common) [1]; rate 0.5000 kg/ha) was 9.0. The “Herbicidal rating CYPSE” value (CYPSE (Flatsedge) [2]; [8]) was 0.0, the “Herbicidal rating CYPSE” value (CYPSE (Flatsedge) [2]; [9]) was 0.0 and the “Herbicidal rating CYPSE” value (CYPSE (Flatsedge) [2]; [10]) was 7.0. For the same molecule, the “Postemergence herbicidal rating ECHCG” value (ECHCG (Barnyardgrass); Rate 0.0158 kg/ha) was 9.0, the “Postemergence herbicidal rating ECHCG” value (ECHCG (Barnyardgrass); Rate 0.0315 kg/ha) was 9.0 and the “Postemergence herbicidal rating ECHCG” value (ECHCG (Barnyardgrass); Rate 0.0630 kg/ha) was 9.0. The “CYPSE herbicidal effect rating” value (CYPSE (Flatsedge) [3]; 0.0625 kg/ha) was 0.0, the “CYPSE herbicidal effect rating” value (CYPSE (Flatsedge) [3]; 0.1250 kg/ha) was 0.0 and the “CYPSE herbicidal effect rating” value (CYPSE (Flatsedge) [3]; 0.2500 kg/ha) was 7.0. The “Preemergence herbicidal rating CASOB” value (CASOB (Sicklepod); rate 0.0156 kg/ha) was 0.0, the “Preemergence herbicidal rating CASOB” value (CASOB (Sicklepod); rate 0.0313 kg/ha) was 0.0 and the “Preemergence herbicidal rating CASOB” value (CASOB (Sicklepod); rate 0.0625 kg/ha) was 2.0. For the same molecule, the “Preemergence herbicidal rating CASOB” value (CASOB (Sicklepod); rate 0.1250 kg/ha) was 7.0, the “Preemergence herbicidal rating CASOB” value (CASOB (Sicklepod); rate 0.2500 kg/ha) was 7.5 and the “Preemergence herbicidal rating CASOB” value (CASOB (Sicklepod); rate 0.5000 kg/ha) was 9.0. For the same molecule, the “Postemergence herbicidal rating ORYSAT” value (ORYSAT (Rice, Tebonnet); Rate 0.0158 kg/ha) was 4.5, the “Postemergence herbicidal rating ORYSAT” value (ORYSAT (Rice, Tebonnet); Rate 0.0315 kg/ha) was 6.0 and the “Postemergence herbicidal rating ORYSAT” value (ORYSAT (Rice, Tebonnet); Rate 0.0630 kg/ha) was 5.5. For the same molecule, the “Postemergence herbicidal rating GLXMAW” value ([4]; Rate 0.0158 kg/ha) was 8.0, the “Postemergence herbicidal rating GLXMAW” value ([4]; Rate 0.0315 kg/ha) was 9.0 and the “Postemergence herbicidal rating GLXMAW” value ([4]; Rate 0.0630 kg/ha) was 9.0. For the same molecule, the “Postemergence herbicidal rating CHEAL” value ([5]; Rate 0.0158 kg/ha) was 9.0, the “Postemergence herbicidal rating CHEAL” value ([5]; Rate 0.0315 kg/ha) was 9.0 and the “Postemergence herbicidal rating CHEAL” value ([5]; Rate 0.0630 kg/ha) was 9.0. For the same molecule, the “Preemergence herbicidal rating GALAP” value (GALAP (Galium); rate 0.0156 kg/ha) was 0.0, the “Preemergence herbicidal rating GALAP” value (GALAP (Galium); rate 0.0313 kg/ha) was 0.0 and the “Preemergence herbicidal rating GALAP” value (GALAP (Galium); rate 0.0625 kg/ha) was 6.0. For the same molecule, the “Preemergence herbicidal rating GALAP” value (GALAP (Galium); rate 0.1250 kg/ha) was 7.0, the “Preemergence herbicidal rating GALAP” value (GALAP (Galium); rate 0.2500 kg/ha) was 9.0 and the “Postemergence herbicidal rating AMBEL” value (AMBEL (Ragweed, Common) [6]; Rate 0.0158 kg/ha) was 9.0. For the same molecule, the “Postemergence herbicidal rating AMBEL” value (AMBEL (Ragweed, Common) [6]; Rate 0.0315 kg/ha) was 9.0, the “Postemergence herbicidal rating AMBEL” value (AMBEL (Ragweed, Common) [6]; Rate 0.0630 kg/ha) was 9.0 and the “Herbicidal rating CYPIR” value (CYPIR (Rice Flatsedge); [8]) was 0.0. For the same molecule, the “Herbicidal rating CYPIR” value (CYPIR (Rice Flatsedge); [9]) was 0.0, the “Herbicidal rating CYPIR” value (CYPIR (Rice Flatsedge); [10]) was 9.0 and the “Postemergence herbicidal rating ZEAMX” value (ZEAMX (Corn, Field); Rate 0.0158 kg/ha) was 7.5. For the same molecule, the “Postemergence herbicidal rating ZEAMX” value (ZEAMX (Corn, Field); Rate 0.0315 kg/ha) was 8.0, the “Postemergence herbicidal rating ZEAMX” value (ZEAMX (Corn, Field); Rate 0.0630 kg/ha) was 8.5 and the “Postemergence herbicidal rating ABUTH” value (ABUTH (Velvetleaf); Rate 0.0158 kg/ha) was 9.0. For the same molecule, the “Postemergence herbicidal rating ABUTH” value (ABUTH (Velvetleaf); Rate 0.0315 kg/ha) was 9.0, the “Postemergence herbicidal rating ABUTH” value (ABUTH (Velvetleaf); Rate 0.0630 kg/ha) was 9.0 and the “Preemergence herbicidal rating CHEAL” value ([7]; rate 0.0156 kg/ha) was 9.0. The “Preemergence herbicidal rating CHEAL” value ([7]; rate 0.0313 kg/ha) was 9.0, the “Preemergence herbicidal rating CHEAL” value ([7]; rate 0.0625 kg/ha) was 9.0 and the “Preemergence herbicidal rating CHEAL” value ([7]; rate 0.1250 kg/ha) was 9.0. For the same molecule, the “Preemergence herbicidal rating CHEAL” value ([7]; rate 0.2500 kg/ha) was 9.0 and the “Preemergence herbicidal rating CHEAL” value ([7]; rate 0.5000 kg/ha) was 9.0.
